Read-outs that look alike come from different tables or passages of the source.

The format of the series is physicochemical. The settings on record: pH 4; for Remaining: buffer. How it is done: 0.05 M citrate buffer with a pH of 4.0 at 20.3° C. was prepared. To this buffer were added 5.35 mM theanine and 2.675 mM of the theanine dimer. The resulting solution was held at 92° C. for two weeks with small samples being taken regularly for analysis with HPLC.

Take `CCNC(=O)CCC1NC(=O)C(CCC(=O)NCC)NC1=O` (stereo not drawn) [Theanine Dimer, N-ethyl-3-[5-(2-ethylcarbamoyl-ethyl)-3,6-dioxo-piperazin-2-yl]-propionamide]: the “Stability compared with theanine” value is “much more stable than theanine”. Under “0 h”, the Remaining is 2.68 mM. Besides, the Remaining (2.5 h) amounted to 2.75 mM. Where the note is “17.5 h”, this compound registered a Remaining of 2.80 mM. Also, the Remaining (26.3 h) is 2.78 mM. The compound further gave a Remaining (42 h) of 2.99 mM. The same compound showed a Remaining (50 h) of 3.31 mM. This compound also yielded a Remaining (121.3 h) of 3.36 mM. Besides, the Remaining (137.3 h) amounted to 3.38 mM. Also, under “145.8 h”, the Remaining came to 3.51 mM. Further, for the setting “161.6 h”, the Remaining amounted to 3.54 mM. For the setting “170.2 h”, this compound returned a Remaining of 3.59 mM. This compound came in with a Remaining (185.8 h) of 3.63 mM. The compound further gave a Remaining (193.3 h) of 3.80 mM.

As to `CCNC(=O)CCC(N)C(=O)O` (stereo not drawn) [Theanine, N-gamma-ethyl glutamine], the Remaining (0 h) was 5.35 mM; the Remaining (2.5 h) worked out at 4.83 mM; the Remaining (17.5 h) stood at 2.54 mM; the Remaining (26.3 h) worked out at 1.83 mM; the Remaining (42 h) is reported as 0.81 mM; the Remaining (50 h) was determined as 0.05 mM. In addition, the Remaining reads like this: (121.3 h) 0.04 mM; (137.3 h) 0.03 mM; (145.8 h) 0.02 mM; (161.6 h) 0.01 mM; (170.2 h) 0.01 mM; (185.8 h) 0.01 mM. Further, the Remaining (193.3 h) was 0.01 mM.

For the origin of these results see patent US20080009505A1, “Theanine derivatives, uses thereof and processes for the manufacture thereof” (Conopco Inc. d/b/a UNILEVER, priority 2006, published 2008).
